Data from patent US10351586B2, “Cytidine derivative dimers and applications thereof” (CHANGZHOU FANGYUAN PHARMACEUTICAL CO., LTD, priority 2014, dated 2019).
Marks after values point to notes of the source that are not given here.

Experiments:
[1] = system: HCT-116 human colon cancer xenografts; experiment: Tumor growth inhibition of HCT-116 human colon cancer xenografts in nude mice; type: in vivo, Balb/c nude mice; conditions: for Relative tumor proliferation rate (T/C %) / Relative tumor volume (RTV) / Tumor growth inhibition rate (TGI %) / Tumor volume of HCT-116 human colon cancer xenografts: single IP injection (QD×1), D1 and D2 400 mg/kg, D3 350 mg/kg, D4 300 mg/kg; for Tumor volume of HCT-116 human colon cancer xenografts: Mean±SEM
How it was run: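 HCT-116 cells grown in F-12 with 10% FBS, inoculated into nude mice at ~3×10^7 cells/mL. Tumour diameter measured three times weekly, volume as V=3/4π(D/2)^3; activity given as TGI (%) versus control and T/C (%) from relative tumour volume Vt/V0.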

[2] = Body weight / toxicity of a single intraperitoneal injection in HCT-116 colon tumor-bearing nude mice; conditions: D3 350 mg/kg, D4 300 mg/kg; for Average rate of weight change of the animals / Average weight of the animals: single IP injection (QD×1), D1 and D2 400 mg/kg; for Average weight of the animals: Mean±SEM
Method: Corresponding test substance was weighed and put into a 5 mL glass tube. The test substance was dissolved in ethanol under the stirring by a 5 mm magnetic stirrer. After a complete dissolution, Cremophor EL was added with continuous stirring. Immediately prior to the user of the test substance, the labeled amount of physiological saline was added and stirred.
Animal experiments were performed. The animals were female Balb/c nude mice at specific pathogen free (SPF) level and were supplied from Shanghai Sippr/BK Lab Animal Ltd. (Shanghai, China). […] These animals were at the age of about 7 weeks to about 9 weeks at the beginning of the experiments and had the weight of about 18 grams to about 22 grams at the beginning of the experiment. The animals had acclimatization duration of about 5 days to about 7 days. Animals were numbered using their tail number. The animal room was maintained at about 23±2° C., 40%-70% humidity, with alternating light and dark every 12 hours.
4.2 Animal inoculation and grouping were performed. Under aseptic conditions, each nude mice was injected with 0.1 mL cell suspension into the right hind leg subcutaneously (3×10^6 cell/mouse). When the size of the tumor grew to have a volume of about 60-150 mm^3, nude mice with a similar tumor size and a desirable shape (e.g., with substantially same shape such as a substantially spherical shape, without having irregular shapes or multiple tumors grouped together) were selected and grouped. In the experiment, there were six mice in each group.
The mice in control group were injected with a mixed solution including ethanol, Cremophor EL and normal saline at a ratio of 5:5:90.
The mice were weighed 3 times every week.
4.4 Clinical symptoms were provided. All clinical symptoms of each animal were recorded at the beginning of the experiments and during the experiments. The observation was performed at the same time every day.
After administration of the test substance, when the weight reduction was >20%, when the animal was dying, or when the tumor volume exceeds about 2800 mm^3, the animal were euthanized by applying CO2. The tumor was separated and weighed, an autopsy was performed, and visual inspection was conducted and recorded on whether there were pathological changes in the organs.

[3] = D1 400 mg/kg Day 7, D2 400 mg/kg Day 9, D3 350 mg/kg Day 11, D4 300 mg/kg Day 11, single IP

**Q.** What does the source list for `O=C(CCCC(=O)OC[C@H]1O[C@@H](n2ccc(NC(=O)OCc3ccccc3)nc2=O)C(F)(F)[C@@H]1O)OC[C@H]1O[C@@H](n2ccc(NC(=O)OCc3ccccc3)nc2=O)C(F)(F)[C@@H]1O` [Compound D3, 1,5-di-[4-N-(benzyloxycarbonyl)-2′-deoxy-2′,2′-difluoro-cytidine]glutarate]?
**A.** Relative tumor proliferation rate, minimum [1, 3]: 3.41%; Tumor inhibition rate, maximum [1, 3]: 98.54%; Relative tumor proliferation rate (T/C %) ([1]; Day 0): 0.00%; Relative tumor volume (RTV) ([1]; Day 0): 1.00; Tumor growth inhibition rate (TGI %) ([1]; Day 0): 0.00%; Tumor volume of HCT-116 human colon cancer xenografts ([1]; Day 0): 38.77 ± 4.33** mm^3; Relative tumor proliferation rate (T/C %) ([1]; Day 1): 60.98%; Relative tumor volume (RTV) ([1]; Day 1): 0.98 ± 0.12; Tumor growth inhibition rate (TGI %) ([1]; Day 1): 79.83%; Tumor volume of HCT-116 human colon cancer xenografts ([1]; Day 1): 36.40 ± 3.98** mm^3; Relative tumor proliferation rate (T/C %) ([1]; Day 2): 49.58%; Relative tumor volume (RTV) ([1]; Day 2): 0.98 ± 0.12; Tumor growth inhibition rate (TGI %) ([1]; Day 2): 83.59%; Tumor volume of HCT-116 human colon cancer xenografts ([1]; Day 2): 36.40 ± 3.98** mm^3; Relative tumor proliferation rate (T/C %) ([1]; Day 4): 23.26%; Relative tumor volume (RTV) ([1]; Day 4): 0.65 ± 0.10; Tumor growth inhibition rate (TGI %) ([1]; Day 4): 92.26%; Tumor volume of HCT-116 human colon cancer xenografts ([1]; Day 4): 23.00 ± 3.08** mm^3; Relative tumor proliferation rate (T/C %) ([1]; Day 7): 6.76%; Relative tumor volume (RTV) ([1]; Day 7): 0.34 ± 0.06; Tumor growth inhibition rate (TGI %) ([1]; Day 7): 97.08%; Tumor volume of HCT-116 human colon cancer xenografts ([1]; Day 7): 12.62 ± 3.10** mm^3; Relative tumor proliferation rate (T/C %) ([1]; Day 9): 4.71%; Relative tumor volume (RTV) ([1]; Day 9): 0.32 ± 0.05; Tumor growth inhibition rate (TGI %) ([1]; Day 9): 97.86%; Tumor volume of HCT-116 human colon cancer xenografts ([1]; Day 9): 12.62 ± 3.10** mm^3; Relative tumor proliferation rate (T/C %) ([1]; Day 11): 3.41%; Relative tumor volume (RTV) ([1]; Day 11): 0.37 ± 0.09; Tumor growth inhibition rate (TGI %) ([1]; Day 11): 98.54%; Tumor volume of HCT-116 human colon cancer xenografts ([1]; Day 11): 14.28 ± 3.69** mm^3; Relative tumor proliferation rate (T/C %) ([1]; Day 14): 5.78%; Relative tumor volume (RTV) ([1]; Day 14): 1.00 ± 0.00; Tumor growth inhibition rate (TGI %) ([1]; Day 14): 97.43%; Tumor volume of HCT-116 human colon cancer xenografts ([1]; Day 14): 36.98 ± 4.82** mm^3; Relative tumor proliferation rate (T/C %) ([1]; Day 16): 10.49%; Relative tumor volume (RTV) ([1]; Day 16): 2.17 ± 0.14; Tumor growth inhibition rate (TGI %) ([1]; Day 16): 95.58%; Tumor volume of HCT-116 human colon cancer xenografts ([1]; Day 16): 80.10 ± 11.07** mm^3; Relative tumor proliferation rate (T/C %) ([1]; Day 18): 16.55%; Relative tumor volume (RTV) ([1]; Day 18): 3.16 ± 0.39; Tumor growth inhibition rate (TGI %) ([1]; Day 18): 93.97%; Tumor volume of HCT-116 human colon cancer xenografts ([1]; Day 18): 120.40 ± 23.44** mm^3; Relative tumor proliferation rate (T/C %) ([1]; Day 21): 23.70%; Relative tumor volume (RTV) ([1]; Day 21): 5.55 ± 0.66; Tumor growth inhibition rate (TGI %) ([1]; Day 21): 91.65%; Tumor volume of HCT-116 human colon cancer xenografts ([1]; Day 21): 204.05 ± 36.25 mm^3; Relative tumor proliferation rate (T/C %) ([1]; Day 23): 31.41%; Relative tumor volume (RTV) ([1]; Day 23): 6.21 ± 0.61; Tumor growth inhibition rate (TGI %) ([1]; Day 23): 90.30%; Tumor volume of HCT-116 human colon cancer xenografts ([1]; Day 23): 229.06 ± 36.15 mm^3; Relative tumor proliferation rate (T/C %) ([1]; Day 25): 33.40%; Relative tumor volume (RTV) ([1]; Day 25): 7.22 ± 0.53; Tumor growth inhibition rate (TGI %) ([1]; Day 25): 89.70%; Tumor volume of HCT-116 human colon cancer xenografts ([1]; Day 25): 266.11 ± 39.63 mm^3; Relative tumor proliferation rate (T/C %) ([1]; Day 28): 43.93%; Relative tumor volume (RTV) ([1]; Day 28): 9.28 ± 0.73; Tumor growth inhibition rate (TGI %) ([1]; Day 28): 87.09%; Tumor volume of HCT-116 human colon cancer xenografts ([1]; Day 28): 347.17 ± 60.84 mm^3; Relative tumor proliferation rate (T/C %) ([1]; Day 30): 52.09%; Relative tumor volume (RTV) ([1]; Day 30): 12.93 ± 0.90; Tumor growth inhibition rate (TGI %) ([1]; Day 30): 82.93%; Tumor volume of HCT-116 human colon cancer xenografts ([1]; Day 30): 479.01 ± 75.54 mm^3; Inhibition of growth of HCT-116 human colon cancer xenografts (in words) ([1]; single IP injection, 300-400 mg/kg): higher tumor inhibition rates; Average rate of weight change of the animals ([2]; Day 0): 0.00%; Average weight of the animals ([2]; Day 0): 19.95 ± 0.09 g; Average rate of weight change of the animals ([2]; Day 1): −3.59 ± 0.66%; Average weight of the animals ([2]; Day 1): 19.23 ± 0.31 g; Average rate of weight change of the animals ([2]; Day 2): −11.25 ± 0.96 %; Average weight of the animals ([2]; Day 2): 17.70 ± 0.26 g; Average rate of weight change of the animals ([2]; Day 4): −8.10 ± 2.84%; Average weight of the animals ([2]; Day 4): 18.24 ± 0.58 g; Average rate of weight change of the animals ([2]; Day 7): −1.68 ± 2.50%; Average weight of the animals ([2]; Day 7): 19.51 ± 0.48 g; Average rate of weight change of the animals ([2]; Day 9): 4.50 ± 1.93 %; Average weight of the animals ([2]; Day 9): 20.74 ± 0.38 g; Average rate of weight change of the animals ([2]; Day 11): 6.38 ± 1.68 %; Average weight of the animals ([2]; Day 11): 21.12 ± 0.41 g; Average rate of weight change of the animals ([2]; Day 14): 7.12 ± 1.19 %; Average weight of the animals ([2]; Day 14): 21.26 ± 0.21 g; Average rate of weight change of the animals ([2]; Day 16): 10.78 ± 0.88 %; Average weight of the animals ([2]; Day 16): 22.00 ± 0.40 g; Average rate of weight change of the animals ([2]; Day 18): 13.71 ± 0.63 %; Average weight of the animals ([2]; Day 18): 22.58 ± 0.38 g; Average rate of weight change of the animals ([2]; Day 21): 10.72 ± 1.6 %; Average weight of the animals ([2]; Day 21): 21.98 ± 0.41 g; Average rate of weight change of the animals ([2]; Day 23): 13.08 ± 2.31 %; Average weight of the animals ([2]; Day 23): 22.44 ± 0.41 g; Average rate of weight change of the animals ([2]; Day 25): 13.34 ± 2.34 %; Average weight of the animals ([2]; Day 25): 22.50 ± 0.53 g; Average rate of weight change of the animals ([2]; Day 28): 11.44 ± 2.29 %; Average weight of the animals ([2]; Day 28): 22.12 ± 0.48 g; Average rate of weight change of the animals ([2]; Day 30): 15.37 ± 2.93%; Average weight of the animals ([2]; Day 30): 22.90 ± 0.60 g; Toxicity in tumor-bearing mice (in words) ([2]; single IP injection, D2 400 mg/kg, judged from body weight versus control): no toxicity
